The record followed here is US12544375B2, “Small molecule therapeutic for parkinson's disease paired with a biomarker of therapeutic activity” (The Board of Trustees of the Leland Stanford Junior …, priority 2019, dated 2026).

In the experiment the test system is LRRK2^G2019S, PINK1 null and SNCA^A53T flies. In words: Adult fly climbing ability (negative geotaxis). The experiment is classed as in vivo. The note with it: 2.5 μM in food, two models (LRRK2 and PINK1). The method, then: FIG. 4A-FIG. 4I. Miro1 Reducer Rescues PD-Relevant Phenotypes in Flies. For all panels, when Miro1 Reducer was not added, the same volume of the solvent, DMSO, was supplied in fly food. Drug administration (2.5 μM) was started from day 2. (FIG. 4A-FIG. 4C) Survival curves of LRRK2^G2019S (FIG. 4A), PINK1^B9 (imprecise excision, null) and PINK1^RV (the precise excision control for PINK1^B9) (FIG. 4B), and SNCA^A53T flies (FIG. 4C). n=58-150. (FIG. 4D) Dopaminergic (DA) neurons in the PPM1/2 clusters of 22-day old flies were immunostained with anti-TH. (FIG. 4D-FIG. 4F) Quantification of the DA neuron number in the PPL1 or PPM1/2 cluster (total number divided by 2 for each brain). (FIG. 4D) LRRK2^G2019S. n=6-8 brains. […]
Fly climbing (negative geotaxis) ability was evaluated as previously described. Briefly, adult flies were gently tapped to the base of a modified 25 ml climbing tube and their climbing progress was recorded after 45 sec. Three populations of flies were assessed, and for each population, flies were examined 3 times per experiment. The recorded values were used to calculate Average Performance Index (PI). […] If the fly flew away, it was recorded as “1”, and if it was unable to fly, it was recorded as “0”. Wing posture was assessed by viewing each fly through a vial under a dissecting microscope. […] A normal wing posture or thorax (Course et al., 2018) was scored as “1”, otherwise “0”. […]

For `O=C(Nc1ccc(Nc2cc(-n3ccnc3)ncn2)cc1)Nc1cccc(F)c1` [Miro1 Reducer], the “locomotor decline (climbing ability)” value was “significantly rescued”.
